Test results as given in patent US20250333709A1, “BRAIN ENDOTHELIAL CELLS AND METHODS OF MAKING” (President and Fellows of Harvard College, priority 2022, published 2025).
Like-named read-outs stand apart in the source and are kept apart here.

B1: WNT3A: Wnt ligand used at 100 ng/ml to activate Wnt signaling in iPSC-ECs (protein, UniProt P56704 19-352, looked up)
Protein Wnt-3a: SYPIWWSLAVGPQYSSLGSQPILCASIPGLVPKQLRFCRNYVEIMPSVAEGIKIGIQECQHQFRGRRWNCTTVHDSLAIFGPVLDKATRESAFVHAIASAGVAFAVTRSCAEGTAAICGCSSRHQGSPGKGWKWGGCSEDIEFGGMVSREFADARENRPDARSAMNRHNNEAGRQAIASHMHLKCKCHGLSGSCEVKTCWWSQPDFRAIGDFLKDKYDSASEMVVEKHRESRGWVETLRPRYTYFKVPTERDLVYYEASPNFCEPNPETGSFGTRDRTCNVSSHGIDGCDLLCCGRGHNARAERRREKCRCVFHWCCYVSCQECTRVYDVHTCK
B2: ciliary neurotrophic factor (protein, UniProt P26441 1-200, looked up)
Ciliary neurotrophic factor: MAFTEHSPLTPHRRDLCSRSIWLARKIRSDLTALTESYVKHQGLNKNINLDSADGMPVASTDQWSELTEAERLQENLQAYRTFHVLLARLLEDQQVHFTPTEGDFHQAIHTLLLQVAAFAYQIEELMILLEYKIPRNEADGMPINVGDGGLFEKKLWGLKVLQELSQWTVRSIHDLRFISSHQTGIPARGSHYIANNKKM
notes: Human recombinant ciliary neurotrophic factor, 20 ng/ml

Experiments:
iPSC-ECs [1] = experiment: GLUT1 and PLVAP expression in iPSC-ECs after Wnt signaling activation (immunostaining, mRNA); format: cell-based, human; conditions: vs. EGM2, FIG. 2A-2C
From the text: CTNNB1::GFP iPSC line (Allen Cell, AICS-0058-067iPSC) was used to visualize subcellular localization of beta-catenin protein. *, P<0.05 vs. EGM2; **, P<0.01 vs. EGM2. Scale bars, 100 um.

iPSC-ECs [2] = experiment: mRNA levels of brain EC genes in iPSC-ECs with HDAC inhibitor, Wnt pathway activator and PKC activator; format: cell-based, human; conditions: 48 hours, presence and absence of quisinostat 10 nM, Chir99021 5 uM, WNT3A 100 ng/ml, IndoV 100 nM, PMA 100 nM, FIG. 5C
Experimental: FIGS. 5A-5C show overexpression of brain EC-specific transcription factors and inhibition of HDAC induce a subset of brain EC-enriched genes. […] Chir99021, 5 uM; WNT3A, 100 ng/ml; IndoV, 100 nM; PMA, 100 nM, Q, quisinostate 10 nM; 48 hours. *, P<0.05 vs. Control; **, P<0.01 vs. Control.

iPSC-ECs [3] = conditions: 10 uM for 2 days, FIG. 4A, 4C
Experimental: Representative immunostaining images of iPSC-ECs after treatment with TGFBR1 inhibitor RepSox (10 uM, FIG. 4A) and human recombinant TGF beta (FIG. 4B). […] All compounds were treated at 10 uM concentrations for 2 days. […] Scale bars, 100 um.

iPSC-ECs [4] = experiment: Brain EC gene regulation in iPSC-ECs exposed to a combination of WNT3A, CNTF and RepSox; format: cell-based, human; conditions: FIG. 4D
iPSC-ECs [5] = experiment: CLDN5 expression in CNTF-treated iPSC-ECs (immunostaining); format: cell-based, human; conditions: CNTF 20 ng/ml, CNTFRa 100 ng/ml, FIG. 3
Experimental: FIG. 3A illustrates iPSC-ECs exposed to either fresh astrocyte medium (AM) or astrocyte-conditioned medium (ACM). Conditioned medium was collected for 48 hours. Both AM and ACM were treated as 1:1 mixture with EC medium (EGM2). […] Human recombinant ciliary neurotrophic factor (CNTF), 20 ng/ml; human recombinant CNTF receptor alpha (CNTFRa), 100 ng/ml. […] PM and PCM were treated as 1:1 mixture with EGM2 for 2 days. […] Scale bars, 100 um.

Molecule | GLUT1 expression (iPSC-ECs [1]) | PLVAP expression (iPSC-ECs [1]) | expression of ABCB1 (mRNA) (iPSC-ECs [2]) | expression of MFSD2A (mRNA) (iPSC-ECs [2]) | CLDN5 expression (iPSC-ECs [3]) | effect on brain EC gene regulation (iPSC-ECs [4]) | CLDN5 expression (iPSC-ECs [5])
Cc1c[nH]c(-c2cnc(NCCNc3ccc(C#N)cn3)nc2-c2ccc(Cl)cc2Cl)n1 [Chir99021] | upregulates | downregulates | induce | induce | – | – | –
CC(C)[C@H]1C(=O)N[C@H](CO)Cc2c[nH]c3cccc(c23)N1C [IndoV] | – | – | induce | induce | – | – | –
CCCCCCCCCCCCCC(=O)O[C@@H]1[C@@H](C)[C@@]2(O)[C@@H](C=C(CO)C[C@]3(O)C(=O)C(C)=C[C@@H]23)[C@@H]2C(C)(C)[C@]12OC(C)=O [PMA] | – | – | induce | induce | – | – | –
Cc1cccc(-c2[nH]ncc2-c2ccc3ncccc3n2)n1 [RepSox] | – | – | – | – | increase | additive effect | –
B1 | upregulates | downregulates | induce | induce | – | additive effect | –
B2 | – | – | – | – | – | additive effect | increases
